Results published in patent US5446043A, “Isoquinolyl, quinoxalinyl and quinazolinyl derivatives as inhibitors of 5-lipoxygenase” (Imperial Chemical Industries Plc, priority 1989, dated 1995).

Tests used:
cyclooxygenase = biological target: T1, cyclooxygenase (Homo sapiens, UniProt P23219); assay: Test b) heparinised human blood challenged with A23187, TxB2 radioimmunoassay (cyclooxygenase); format: cell-based; details: A23187, T×B2
T1 construct: incubating a test compound with heparinised human blood, prior to challenge with the calcium ionophore A23187; endogenous in cells; host or cells: blood cells (chiefly platelets, own knowledge) in heparinised human whole blood
Method: (§1) b) An in vitro assay system involving incubating a test compound with heparinised human blood, prior to challenge with the calcium ionophore A23187 and then indirectly measuring the inhibitory effects on 5-LO by assaying the amount of LTB4 using the specific radioimmunoassay described by Carey and Forder (F. Carey and R. A. Forder, Brit. J. Pharmacol. 1985, 84, 34P) which involves the use of a protein-LTB4 conjugate produced using the procedure of Young et alia (Prostaglandins, 1983, 26(4), 605-613). The effects of a test compound on the enzyme cyclooxygenase (which is involved in the alternative metabolic pathway for arachidonic acid .and gives rise to prostaglandins, thromboxanes and related metabolites) may be measured at the same time using the specific radioimmunoassay for thromboxane B2 (T×B2) described by Carey and Forder (see above). This test provides an indication of the effects of a test compound against 5-LO and also cyclooxgenase in the presence of blood cells and proteins. It permits the selectivity of the inhibitory effect on 5-LO or cyclooxygenase to be assessed.

5-LO [1] = assay: Test c) ex vivo assay: administration of compound, blood collection, A23187 challenge, LTB4 radioimmunoassay; format: in vivo
Method: c) An ex vivo assay system, which is a variation of test b) above, involving administration of a test compound (usually orally as the suspension produced when a solution of the test compound in dimethylsulphoxide is added to carboxymethylcellulose), blood collection, heparinisation, challenge with A23187 and radioimmunoassay of LTB4 and T×B2. This test provides an indication of the bioavailability of a test compound as an inhibitor of 5-LO or cyclooxygenase.

5-LO [2] = biological target: T2, 5-LO (Homo sapiens, UniProt P09917); assay: Test b) heparinised human blood challenged with A23187, LTB4 radioimmunoassay (5-LO); format: cell-based; details: read-out: IC50 against LTB4
T2 construct: incubating a test compound with heparinised human blood, prior to challenge with the calcium ionophore A23187; endogenous in cells; host or cells: blood cells in heparinised human whole blood
T2 sequence (P09917 1-674): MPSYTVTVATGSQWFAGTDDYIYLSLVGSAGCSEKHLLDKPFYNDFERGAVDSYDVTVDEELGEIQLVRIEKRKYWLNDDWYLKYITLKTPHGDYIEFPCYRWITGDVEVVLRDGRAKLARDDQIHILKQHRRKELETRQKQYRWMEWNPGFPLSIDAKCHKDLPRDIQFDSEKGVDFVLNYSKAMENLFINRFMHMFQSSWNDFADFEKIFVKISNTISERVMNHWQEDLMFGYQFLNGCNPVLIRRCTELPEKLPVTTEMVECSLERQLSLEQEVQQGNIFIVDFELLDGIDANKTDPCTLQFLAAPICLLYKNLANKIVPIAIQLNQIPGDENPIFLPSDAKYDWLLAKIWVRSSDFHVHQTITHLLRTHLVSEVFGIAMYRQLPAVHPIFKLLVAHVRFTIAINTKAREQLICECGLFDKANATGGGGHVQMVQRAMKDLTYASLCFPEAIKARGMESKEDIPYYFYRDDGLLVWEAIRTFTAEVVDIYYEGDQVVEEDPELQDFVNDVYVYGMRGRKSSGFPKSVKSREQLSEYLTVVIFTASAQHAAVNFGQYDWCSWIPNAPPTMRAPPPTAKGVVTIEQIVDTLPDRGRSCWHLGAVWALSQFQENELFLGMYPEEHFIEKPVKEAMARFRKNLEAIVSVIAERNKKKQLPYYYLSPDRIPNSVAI
Method: as §1

T1 sequence (P23219 24-599): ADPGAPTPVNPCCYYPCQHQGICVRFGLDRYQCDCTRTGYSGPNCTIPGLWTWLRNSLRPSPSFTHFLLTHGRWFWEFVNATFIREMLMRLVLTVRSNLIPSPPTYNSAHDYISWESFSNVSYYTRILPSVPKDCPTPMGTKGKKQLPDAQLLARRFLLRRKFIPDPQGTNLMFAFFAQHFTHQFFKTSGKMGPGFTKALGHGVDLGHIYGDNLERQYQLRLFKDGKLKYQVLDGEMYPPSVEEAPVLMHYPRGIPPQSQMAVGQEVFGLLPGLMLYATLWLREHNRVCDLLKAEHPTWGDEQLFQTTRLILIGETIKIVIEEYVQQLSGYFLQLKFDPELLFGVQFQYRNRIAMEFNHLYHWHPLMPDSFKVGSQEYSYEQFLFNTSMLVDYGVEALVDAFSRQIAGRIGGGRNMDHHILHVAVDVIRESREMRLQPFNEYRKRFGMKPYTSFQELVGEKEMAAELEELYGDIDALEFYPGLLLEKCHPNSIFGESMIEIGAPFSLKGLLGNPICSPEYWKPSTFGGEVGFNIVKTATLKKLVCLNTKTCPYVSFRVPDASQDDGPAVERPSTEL

Q: Which results are given for `CO[C@H]1CCC[C@@]1(OC)c1cccc(OCC#Cc2ccccn2)c1` (relative stereo) [trans-1,2-dimethoxy-1-[3-(3-(2-pyridyl)prop-2-yn-1-yloxy)phenyl]-cyclopentane]?
A: IC50 (cyclooxygenase): > 40 µM; oral ED50 against LTB4 (5-LO [1]): < 100 mg/k; IC50 (5-LO [2]): 8 µM
